Laboratory results as given in ChEMBL document CHEMBL1201862, “PubChem BioAssay data set” (2004).
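Each compound was tested at five concentrations against cells in 96-well plates for 48 hours. At the GI50, growth is halved.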 Activity calls are given as the source filed them. Rule as the data show it: active = GI50 up to about 1.1 µM and inactive = higher.

How the values were obtained:
Assay in all cases: DTP human tumour cell line panel, 48 h
HCT-15 = system: HCT-15
A549 = system: A549
K562 = system: K562
IGROV-1 = system: IGROV-1
SF-295 = system: SF-295
OVCAR-4 = system: OVCAR-4
OVCAR-8 = system: OVCAR-8
EKVX = system: EKVX
KM12 = system: KM12
SF-268 = system: SF-268
SW-620 = system: SW-620
COLO 205 = system: COLO 205
HOP-62 = system: HOP-62
UACC-257 = system: UACC-257
SN12C = system: SN12C
SR = system: SR
NCI-H522 = system: NCI-H522

COC(=O)[C@@]12C=CC(=O)[C@H]3C[C@@H](C(C(C)C)C1)[C@]32OC (stereo partly specified)
GI50 (HCT-15): > 100 µM
GI50 (A549): > 100 µM (inactive)
GI50 (K562): > 100 µM (inactive)
GI50 (IGROV-1): > 100 µM (inactive)
GI50 (SF-295): > 100 µM (inactive)
GI50 (OVCAR-4): > 100 µM (inactive)
GI50 (OVCAR-8): > 100 µM (inactive)
GI50 (EKVX): > 100 µM (inactive)
GI50 (KM12): > 100 µM (inactive)
GI50 (SF-268): > 100 µM (inactive)
GI50 (SW-620): > 100 µM (inactive)
GI50 (COLO 205): > 100 µM (inactive)
GI50 (HOP-62): > 100 µM (inactive)
GI50 (UACC-257): > 100 µM (inactive)
GI50 (SN12C): > 100 µM (inactive)

CC(C)(C)C1=CC(=NNC(=S)NCc2ccccc2)C=C(C(C)(C)C)C1=O
GI50 (HCT-15): > 100 µM
GI50 (A549): 42.7 µM (inactive)
GI50 (K562): 83 µM (inactive)
GI50 (IGROV-1): > 100 µM (inactive)
GI50 (SF-295): 86.3 µM (inactive)
GI50 (OVCAR-4): 90.2 µM (inactive)
GI50 (OVCAR-8): > 100 µM (inactive)
GI50 (EKVX): 89.3 µM (inactive)
GI50 (SF-268): 87.3 µM (inactive)
GI50 (SW-620): > 100 µM (inactive)
GI50 (COLO 205): 51.5 µM (inactive)
GI50 (HOP-62): > 100 µM (inactive)
GI50 (UACC-257): 91.6 µM (inactive)
GI50 (SN12C): 92.5 µM (inactive)
GI50 (SR): > 100 µM (inactive)

C[C@]12Cc3cn[nH]c3C(=O)C1CC[C@@H]1C2CC[C@@]2(C)C1CC[C@@H]2O (stereo partly specified)
GI50 (HCT-15): > 100 µM
GI50 (A549): > 100 µM (inactive)
GI50 (K562): > 100 µM (inactive)
GI50 (IGROV-1): > 100 µM (inactive)
GI50 (SF-295): > 100 µM (inactive)
GI50 (NCI-H522): > 100 µM (inactive)
GI50 (OVCAR-4): > 100 µM (inactive)
GI50 (OVCAR-8): > 100 µM (inactive)
GI50 (EKVX): > 100 µM (inactive)
GI50 (KM12): > 100 µM (inactive)
GI50 (SF-268): > 100 µM (inactive)
GI50 (SW-620): > 100 µM (inactive)
GI50 (COLO 205): > 100 µM (inactive)
GI50 (HOP-62): > 100 µM (inactive)
GI50 (UACC-257): > 100 µM (inactive)
GI50 (SN12C): > 100 µM (inactive)

CC1(C)SCc2nc3ncccc3n21
GI50 (HCT-15): > 100 µM
GI50 (A549): > 100 µM (inactive)
GI50 (K562): > 100 µM (inactive)
GI50 (IGROV-1): > 100 µM (inactive)
GI50 (SF-295): > 100 µM (inactive)
GI50 (NCI-H522): > 100 µM (inactive)
GI50 (OVCAR-4): > 100 µM (inactive)
GI50 (OVCAR-8): > 100 µM (inactive)
GI50 (EKVX): > 100 µM (inactive)
GI50 (KM12): > 100 µM (inactive)
GI50 (SF-268): > 100 µM (inactive)
GI50 (SW-620): > 100 µM (inactive)
GI50 (COLO 205): > 100 µM (inactive)
GI50 (HOP-62): > 100 µM (inactive)
GI50 (UACC-257): > 100 µM (inactive)
GI50 (SN12C): > 100 µM (inactive)

Sc1ncnc2c1ncn2C1CCCO1 (stereo unspecified)
GI50 (HCT-15): > 100 µM
GI50 (A549): > 100 µM (inactive)
GI50 (K562): 38.8 µM (inactive)
GI50 (IGROV-1): > 100 µM (inactive)
GI50 (SF-295): > 100 µM (inactive)
GI50 (NCI-H522): 64.6 µM (inactive)
GI50 (OVCAR-4): 51.1 µM (inactive)
GI50 (OVCAR-8): > 100 µM (inactive)
GI50 (KM12): > 100 µM (inactive)
GI50 (SF-268): > 100 µM (inactive)
GI50 (SW-620): > 100 µM (inactive)
GI50 (COLO 205): > 100 µM (inactive)
GI50 (HOP-62): 64.4 µM (inactive)
GI50 (SN12C): > 100 µM (inactive)

COc1ccc2oc3cccc(NCCN(C)C)c3c(=O)c2c1
GI50 (HCT-15): 13.7 µM
GI50 (A549): 14.2 µM (inactive)
GI50 (K562): 9.35 µM (inactive)
GI50 (IGROV-1): 16.6 µM (inactive)
GI50 (SF-295): 16.1 µM (inactive)
GI50 (OVCAR-4): 12.7 µM (inactive)
GI50 (OVCAR-8): 11.1 µM (inactive)
GI50 (EKVX): 15 µM (inactive)
GI50 (KM12): 13.1 µM (inactive)
GI50 (SF-268): 13.3 µM (inactive)
GI50 (SW-620): 5.08 µM (inactive)
GI50 (COLO 205): 5.6 µM (inactive)
GI50 (HOP-62): 15.2 µM (inactive)
GI50 (UACC-257): 16.3 µM (inactive)
GI50 (SN12C): 11 µM (inactive)
GI50 (SR): 8.85 µM (inactive)

CCN(CC)Cc1cc(Nc2c3ccccc3nc3c4ccccc4n(C)c23)ccc1O
GI50 (HCT-15): 8.85 µM
GI50 (A549): 12.9 µM (inactive)
GI50 (K562): 2.51 µM (inactive)
GI50 (IGROV-1): 15.4 µM (inactive)
GI50 (SF-295): 10 µM (inactive)
GI50 (NCI-H522): 2.58 µM (inactive)
GI50 (OVCAR-4): 14 µM (inactive)
GI50 (OVCAR-8): 9.25 µM (inactive)
GI50 (EKVX): 15.6 µM (inactive)
GI50 (KM12): 7.73 µM (inactive)
GI50 (SF-268): 16.6 µM (inactive)
GI50 (SW-620): 6.07 µM (inactive)
GI50 (COLO 205): 4.73 µM (inactive)
GI50 (HOP-62): 12 µM (inactive)
GI50 (UACC-257): 10.4 µM (inactive)
GI50 (SN12C): 13.9 µM (inactive)

COc1cc2c(c(OC)c1OC)-c1ccc(SC)c(=O)cc1[C@@H](NC(=O)c1ccc(Cl)cc1)CC2
GI50 (HCT-15): < 0.01 µM
GI50 (A549): < 0.01 µM (active)
GI50 (K562): < 0.01 µM (active)
GI50 (IGROV-1): < 0.01 µM (active)
GI50 (SF-295): < 0.01 µM (active)
GI50 (OVCAR-4): < 0.01 µM (active)
GI50 (OVCAR-8): < 0.01 µM (active)
GI50 (SF-268): < 0.01 µM (active)
GI50 (SW-620): < 0.01 µM (active)
GI50 (COLO 205): < 0.01 µM (active)
GI50 (HOP-62): < 0.01 µM (active)
GI50 (UACC-257): < 0.01 µM (active)
GI50 (SN12C): < 0.01 µM (active)
GI50 (SR): < 0.01 µM (active)

CN1C[C@@H]2CC(=O)CC[C@@H]2C[C@H]1C#N
GI50 (HCT-15): > 100 µM
GI50 (A549): > 100 µM (inactive)
GI50 (K562): > 100 µM (inactive)
GI50 (IGROV-1): > 100 µM (inactive)
GI50 (SF-295): > 100 µM (inactive)
GI50 (NCI-H522): > 100 µM (inactive)
GI50 (OVCAR-4): > 100 µM (inactive)
GI50 (OVCAR-8): > 100 µM (inactive)
GI50 (KM12): > 100 µM (inactive)
GI50 (SF-268): > 100 µM (inactive)
GI50 (SW-620): > 100 µM (inactive)
GI50 (HOP-62): > 100 µM (inactive)
GI50 (UACC-257): > 100 µM (inactive)
GI50 (SN12C): > 100 µM (inactive)
